Measured values reported in patent publication US6350596B2, “Method for producing L-phenylalanine” (Ajinomoto Co., Inc., priority 2000, dated 2002).

Legend:
[1] = tested on: Methylophilus methylotrophus AS-1 (NCIB 10515; ATCC 53528); assay: Sensitivity of the wild type strain to phenylalanine analogs on 121(Fe2)-agar medium; type: cell-based; settings: for amount at which the wild type strain (strain AS-1) can not grow: usually, under the conditions described in Examples
Text: To be resistant to an phenylalanine analog means that the bacterium can grow in the presence of the phenylalanine analog in the amount at which the wild type strain (for example, strain AS-1) can not grow. The amount varies depending on the kinds of the phenylalanine analog.
To be resistant to L-phenylalanine means that the bacterium can grow in the presence of L-phenylalanine in the amount at which the wild type strain (for example, strain AS-1) can not grow. The amount is usually 8 g/l under the conditions described in Examples mentioned below.
To be resistant to cinnamic acid means that the bacterium can grow in the presence of cinnamic acid in the amount at which the wild type strain (for example, strain AS-1) can not grow. The amount is usually 50 mg/l under the conditions described in Examples mentioned below.
The 10^8 c.f.u./ml of M. methylotrophus bacteria were plated and grown at +30° C. for 3 days. […] The several crystals of N-methyl-N′-nitro-N-nitrosoguanidin (hereinafter abbreviated to NG) mutagen was placed in the middle of the plate. After 4-5 days at 30° C., the plates were analyzed.

[2] = tested on: M. methylotrophus pFp^R mutant No. 227; assay: Growth of pFp^R mutant on agarized 121-medium with L-phenylalanine; type: cell-based, Methylophilus methylotrophus; settings: added into the agarized 121-medium
[3] = tested on: Methylophilus methylotrophus pFp^R phe^R mutant strain No. 227-16; type: cell-based
Text: The new mutants which were resistant to 1 g/L of meta-fluorophenylalanine (hereinafter abbreviated to mFp^R) were isolated from the strain No. 227-16 after NG-mutagenesis as it was described above.

Structure (SMILES) | concentration that totally inhibited the growth of the bacteria lawn ([1]; 121(Fe2)-agar medium, 10^8 c.f.u./ml plated, +30° C., 3 days) | amount at which the wild type strain (strain AS-1) can not grow [1] | concentration that totally inhibited the growth [2] | concentration to which the strain was resistant ([3]; strain No. 227-16) | growth of the strain in the presence of the analog ([3]; strain No. 227-16, 1 g/l of the analog)
NC(Cc1ccc(F)cc1)C(=O)O (racemic) [DL-p-fluorophenylalanine] | 1 mg/mL | 2 g/L | – | – | –
O=C(O)C=Cc1ccccc1 [cinnamic acid] | – | 0.05 g/L | – | – | –
N[C@@H](Cc1ccccc1)C(=O)O [L-phenylalanine] | – | 8 g/L | 0.1 M | 0.05 M | –
N[C@@H](Cc1cccc(F)c1)C(=O)O [m-fluorophenylalanine] | – | 1 g/L | – | – | only a slight growth
